# Reference: patent US20240262826A1, “WILD TYPE KIT INHIBITORS” (Blueprint Medicines Corporation, priority 2022, published 2024)
# Target: wild type c-kit (Homo sapiens (Human), UniProt P10721)
# Experiment: PathScan phospho c-kit (Tyr719) sandwich ELISA in SCF-stimulated M-07e cells (pKIT assay)
# Assay type: cell-based
# Details: ELISA assay (values not marked *)
# Summary of the method: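 Tyr719-phosphorylated c-kit was measured by colorimetric (TMB) sandwich ELISA in lysates of M-07e cells. Cells were starved 4 h without serum or GM-CSF, dosed 60 min at 37 °C with compound (8 points, duplicate, 0.25% DMSO), and stimulated 10 min with human SCF (500 ng/mL as added). IC50 values came from 4-parameter logistic regression.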
# Chain of wild type c-kit (P10721 26-976): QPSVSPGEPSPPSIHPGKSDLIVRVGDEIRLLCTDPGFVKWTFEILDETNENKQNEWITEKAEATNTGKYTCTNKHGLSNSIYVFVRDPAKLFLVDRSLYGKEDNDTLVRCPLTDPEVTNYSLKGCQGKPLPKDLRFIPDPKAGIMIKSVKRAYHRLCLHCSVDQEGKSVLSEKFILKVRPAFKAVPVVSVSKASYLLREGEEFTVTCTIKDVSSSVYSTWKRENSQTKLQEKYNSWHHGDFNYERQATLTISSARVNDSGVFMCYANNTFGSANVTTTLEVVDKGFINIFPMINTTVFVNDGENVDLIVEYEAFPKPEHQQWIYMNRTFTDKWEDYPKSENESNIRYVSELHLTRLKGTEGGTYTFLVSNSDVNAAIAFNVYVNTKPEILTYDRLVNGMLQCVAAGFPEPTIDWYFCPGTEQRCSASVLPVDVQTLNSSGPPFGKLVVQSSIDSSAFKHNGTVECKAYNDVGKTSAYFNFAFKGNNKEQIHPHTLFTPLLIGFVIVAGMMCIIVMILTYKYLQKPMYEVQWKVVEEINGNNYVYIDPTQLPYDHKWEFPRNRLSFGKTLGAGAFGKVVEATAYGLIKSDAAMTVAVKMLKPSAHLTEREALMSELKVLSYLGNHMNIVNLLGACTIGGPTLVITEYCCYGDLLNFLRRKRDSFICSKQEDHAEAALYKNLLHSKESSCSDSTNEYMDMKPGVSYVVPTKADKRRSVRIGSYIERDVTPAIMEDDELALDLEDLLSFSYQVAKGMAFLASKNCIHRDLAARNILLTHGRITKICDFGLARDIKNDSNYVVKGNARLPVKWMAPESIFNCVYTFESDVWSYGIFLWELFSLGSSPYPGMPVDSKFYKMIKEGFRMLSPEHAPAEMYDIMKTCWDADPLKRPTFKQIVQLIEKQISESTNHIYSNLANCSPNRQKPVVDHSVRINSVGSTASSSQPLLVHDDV
row,IC50 [nM],Structure (SMILES)
1,26,"Cc1ccc(-c2nnn(C)n2)cc1NC(=O)c1cnn2ccc(-c3cnn(CCCS(C)(=N)=O)c3)cc12 (stereo not drawn) [Example 232, N-(2-methyl-5-(2-methyl-2H-tetrazol-5-yl)phenyl)-5-(1-(3-(S-methylsulfonimidoyl)propyl)-1H-pyrazol-4-yl)pyrazolo[1,5-a]pyridine-3-carboxamide]"
2,0.7,"Cc1ccc(-c2nnn(C3CC3)n2)cc1NC(=O)c1cnn2ccc(-c3cnn(C[C@H]4CNCCO4)c3)cc12 [Example 229, (R)-N-(5-(2-cyclopropyl-2H-tetrazol-5-yl)-2-methylphenyl)-5-(1-(morpholin-2-ylmethyl)-1H-pyrazol-4-yl)pyrazolo[1,5-a]pyridine-3-carboxamide]"
3,77.8,"Cc1ccc(-c2nnn(C3CN(S(=O)(=O)C4CCOC4)C3)n2)cc1NC(=O)c1cnn2ccccc12 (stereo not drawn) [Example 175, N-(2-methyl-5-(2-(1-((tetrahydrofuran-3-yl)sulfonyl)azetidin-3-yl)-2H-tetrazol-5-yl)phenyl)pyrazolo[1,5-a]pyridine-3-carboxamide]"
4,0.4,"Cc1nnn(-c2ccc(C)c(NC(=O)c3cnn4ccc(-c5c(C)nn(CC(C)(C)O)c5C)cc34)c2)n1 [Example 244, 5-(1-(2-hydroxy-2-methylpropyl)-3,5-dimethyl-1H-pyrazol-4-yl)-N-(2-methyl-5-(5-methyl-2H-tetrazol-2-yl)phenyl)pyrazolo[1,5-a]pyridine-3-carboxamide]"
5,4.7,"O=C(Nc1cc(-c2nnn(C3CC(F)(F)C3)n2)ccc1Cl)c1cnn2ccc(N3CCOCC3)cc12 [Example 169, N-(2-chloro-5-(2-(3,3-difluorocyclobutyl)-2H-tetrazol-5-yl)phenyl)-5-morpholinopyrazolo[1,5-a]pyridine-3-carboxamide]"
6,14.9,"COC(=O)N1CC(c2cnn(-c3ccc(C)c(NC(=O)c4cnn5cc(N6CCOCC6)ccc45)c3)n2)C1 [Example 160, methyl 3-(2-(4-methyl-3-(6-morpholinopyrazolo[1,5-a]pyridine-3-carboxamido)phenyl)-2H-1,2,3-triazol-4-yl)azetidine-1-carboxylate]"
7,2.3,"O=C(Nc1cc(-c2nnn(CC3CC3(F)F)n2)ccc1Cl)c1cnn2ccccc12 (stereo not drawn) [Example 16, N-(2-chloro-5-(2-((2,2-difluorocyclopropyl)methyl)-2H-tetrazol-5-yl)phenyl)pyrazolo[1,5-a]pyridine-3-carboxamide]"
8,21.4,"COC(=O)N1CC(n2nnc(-c3ccc(C)c(NC(=O)c4cnn5ccc(N(C)C)cc45)c3)n2)C1 [Example 132, methyl 3-(5-(3-(5-(dimethylamino)pyrazolo[1,5-a]pyridine-3-carboxamido)-4-methylphenyl)-2H-tetrazol-2-yl)azetidine-1-carboxylate]"
9,0.5,"Cc1cc(F)c(-c2nnn(C3CC3)n2)cc1NC(=O)c1cnn2ccc(-c3cn(C[C@H](C)O)nc3C)cc12 [Example 256, (S)-N-(5-(2-cyclopropyl-2H-tetrazol-5-yl)-4-fluoro-2-methylphenyl)-5-(1-(2-hydroxypropyl)-3-methyl-1H-pyrazol-4-yl)pyrazolo[1,5-a]pyridine-3-carboxamide]"
10,23.7,"Cc1cc(F)c(NC(=O)c2cnn3ccc(-c4cnn(CC(C)(C)O)c4)cc23)cc1-c1nnn(C2CC2)n1 [Example 215, N-(5-(2-cyclopropyl-2H-tetrazol-5-yl)-2-fluoro-4-methylphenyl)-5-(1-(2-hydroxy-2-methylpropyl)-1H-pyrazol-4-yl)pyrazolo[1,5-a]pyridine-3-carboxamide]"
11,3.6,"Cc1nnn(-c2ccc(C)c(NC(=O)c3cnn4ccc(Nc5cn[nH]c5)cc34)c2)n1 [Example 231, 5-((1H-pyrazol-4-yl)amino)-N-(2-methyl-5-(5-methyl-2H-tetrazol-2-yl)phenyl)pyrazolo[1,5-a]pyridine-3-carboxamide]"
12,50.9,"Cc1cc(C)c(-c2nnn(CC34COC(C3)C4)n2)cc1NC(=O)c1cnn2ccccc12 [Example 20, N-(5-(2-((2-oxabicyclo[2.1.1]hexan-4-yl)methyl)-2H-tetrazol-5-yl)-2,4-dimethylphenyl)pyrazolo[1,5-a]pyridine-3-carboxamide]"
13,23.4,"[2H]C([2H])([2H])N1CCN(c2ccn3ncc(C(=O)Nc4cc(-n5ncc(C6CN(C(=O)OC)C6)n5)ccc4C)c3c2)CC1 [Example 82, methyl 3-(2-(4-methyl-3-(5-(4-(methyl-d3)piperazin-1-yl)pyrazolo[1,5-a]pyridine-3-carboxamido)phenyl)-2H-1,2,3-triazol-4-yl)azetidine-1-carboxylate]"
14,1.1,"COC[C@@H](O)Cn1ncc(-c2ccn3ncc(C(=O)Nc4cc(-c5nnn(C6CC6)n5)c(C)cc4Cl)c3c2)c1C [Example 262, (S)-N-(2-chloro-5-(2-cyclopropyl-2H-tetrazol-5-yl)-4-methylphenyl)-5-(1-(2-hydroxy-3-methoxypropyl)-5-methyl-1H-pyrazol-4-yl)pyrazolo[1,5-a]pyridine-3-carboxamide]"
15,16.8,"CCNc1ccn2ncc(C(=O)Nc3cc(-n4ncc(C5CN(C(=O)OC)C5)n4)ccc3C)c2c1 [Example 137, methyl 3-(2-(3-(5-(ethylamino)pyrazolo[1,5-a]pyridine-3-carboxamido)-4-methylphenyl)-2H-1,2,3-triazol-4-yl)azetidine-1-carboxylate]"
16,0.4,"CCn1nnc(-c2ccc(Cl)c(NC(=O)c3cnn4ccc(-c5c(C)nn(C[C@H](C)O)c5C)cc34)c2)n1 [Example 253, (S)-N-(2-chloro-5-(2-ethyl-2H-tetrazol-5-yl)phenyl)-5-(1-(2-hydroxypropyl)-3,5-dimethyl-1H-pyrazol-4-yl)pyrazolo[1,5-a]pyridine-3-carboxamide]"
17,8.8,"Cc1ccc(-c2nnn(C3CN(S(=O)(=O)C(C)C)C3)n2)cc1NC(=O)c1cnn2ccccc12 [Example 177, N-(5-(2-(1-(isopropylsulfonyl)azetidin-3-yl)-2H-tetrazol-5-yl)-2-methylphenyl)pyrazolo[1,5-a]pyridine-3-carboxamide]"
18,3.2,"COCCNc1ccn2ncc(C(=O)Nc3cc(-c4nnn(CCCC(F)(F)F)n4)ccc3C)c2c1 [Example 116, 5-((2-methoxyethyl)amino)-N-(2-methyl-5-(2-(4,4,4-trifluorobutyl)-2H-tetrazol-5-yl)phenyl)pyrazolo[1,5-a]pyridine-3-carboxamide]"
19,0.7,"CCn1nnc(-c2cc(NC(=O)c3cnn4ccc(-c5cn(C[C@H](O)COCCOC)nc5C)cc34)c(Cl)cc2F)n1 [Example 283, (S)—N-(2-chloro-5-(2-ethyl-2H-tetrazol-5-yl)-4-fluorophenyl)-5-(1-(2-hydroxy-3-(2-methoxyethoxy)propyl)-3-methyl-1H-pyrazol-4-yl)pyrazolo[1,5-a]pyridine-3-carboxamide]"
20,8,"COCCNc1ccc2c(C(=O)Nc3cc(-c4nnn(C5CN(C(=O)OC)C5)n4)ccc3Cl)cnn2c1 [Example 164, Methyl 3-(5-(4-chloro-3-(6-((2-methoxyethyl)amino)pyrazolo[1,5-a]pyridine-3-carboxamido)phenyl)-2H-tetrazol-2-yl)azetidine-1-carboxylate]"
21,2.6,"Cc1ccc(-c2nnn(C3CC(F)(F)C3)n2)cc1NC(=O)c1cnn2ccc(NCC(F)(F)CO)cc12 [Example 102, 5-((2,2-difluoro-3-hydroxypropyl)amino)-N-(5-(2-(3,3-difluorocyclobutyl)-2H-tetrazol-5-yl)-2-methylphenyl)pyrazolo[1,5-a]pyridine-3-carboxamide]"
22,0.8,"CCn1nnc(-c2cc(NC(=O)c3cnn4ccc(-c5cn(CC(C)(C)O)nc5C)cc34)c(Cl)cc2F)n1 [Example 265, N-(2-chloro-5-(2-ethyl-2H-tetrazol-5-yl)-4-fluorophenyl)-5-(1-(2-hydroxy-2-methylpropyl)-3-methyl-1H-pyrazol-4-yl)pyrazolo[1,5-a]pyridine-3-carboxamide]"
23,22.8,Cc1ccc(-n2nnc(C3CN(S(C)(=O)=O)C3)n2)cc1NC(=O)c1cnn2ccccc12 [Example 190]
24,0.5,"Cc1c(-c2ccn3ncc(C(=O)Nc4cc(-c5nnn(C6CC6)n5)c(F)cc4Cl)c3c2)cnn1C[C@H](C)O [Example 264, (S)-N-(2-chloro-5-(2-cyclopropyl-2H-tetrazol-5-yl)-4-fluorophenyl)-5-(1-(2-hydroxypropyl)-5-methyl-1H-pyrazol-4-yl)pyrazolo[1,5-a]pyridine-3-carboxamide]"
